{"source": "patent US10294229B2", "about": "“Heteroaryl substituted aminopyridine compounds” (BRISTOL-MYERS SQUIBB COMPANY, priority 2015, dated 2019)", "key": {"IRAK4": {"target": "IRAK4 (Homo sapiens (Human), UniProt Q9NWZ3)", "sequence (Q9NWZ3 whole entry, species assumed)": "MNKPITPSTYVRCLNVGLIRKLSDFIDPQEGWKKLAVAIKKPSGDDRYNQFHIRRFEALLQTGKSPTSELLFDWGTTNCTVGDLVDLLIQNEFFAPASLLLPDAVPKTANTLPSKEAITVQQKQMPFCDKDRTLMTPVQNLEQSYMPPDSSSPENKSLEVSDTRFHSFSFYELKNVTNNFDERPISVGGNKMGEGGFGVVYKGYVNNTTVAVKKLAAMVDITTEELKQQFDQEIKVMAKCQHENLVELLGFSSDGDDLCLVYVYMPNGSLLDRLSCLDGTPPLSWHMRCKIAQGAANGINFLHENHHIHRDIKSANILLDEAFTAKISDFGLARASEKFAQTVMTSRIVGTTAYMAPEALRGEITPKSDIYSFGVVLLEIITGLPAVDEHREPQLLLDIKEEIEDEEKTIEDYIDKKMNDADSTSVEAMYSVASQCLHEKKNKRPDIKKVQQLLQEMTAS", "experiment": "IRAK4 Inhibition Assay", "type": "biochemical", "details": "ATP 500 μM; IRAK4 0.6 nM", "outline": "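Readout: electrophoretic (LabChip) separation of fluorescent peptide substrate from phosphorylated product after EDTA quench. Reactions ran 60 min at room temperature with 0.6 nM IRAK4, 1.5 μM peptide and 500 μM ATP; inhibition referenced to no-enzyme (100%) and vehicle (0%) controls.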"}, "[1]": {"system": "Human whole blood stimulated with a TLR2 agonist (lipoteichoic acid), IL-6 levels", "experiment": "IRAK4 Whole Blood Assay", "type": "cell-based", "details": "lipoteichoic acid 10 μg/mL", "experimental": "Human whole blood containing the anti-coagulant ACD-A was plated in 384-well plate (25 μL/well) and incubated with compounds for 60 minutes at 37° C. in a 5% CO2 incubator. The blood was stimulated with a TLR2 agonist, 10 μg/mL final concentration of lipoteichoic acid (Invivogen, San Diego, Calif.) in 25 μL RPMI (Gibco) for 5 hours in a 5% CO2 incubator. At the end of the incubation, plates were centrifuged at 2300 rpm for 5 minutes. Supernatants were harvested and analyzed for IL-6 levels by Flow Cytometry beads assay (BD Biosciences, San Jose, Calif.)."}}, "data": [{"smiles": "CC(C)Nc1cc(-n2ncc3cc(C#N)cnc32)ncc1-c1cn(C(C)C)cn1", "note": "[Example 225, 1-(5-(1-isopropyl-1H-imidazol-4-yl)-4-(isopropylamino)pyridin-2-yl)-1H-pyrazolo[3,4-b]pyridine-5-carbonitrile]", "values": [{"measurement": "IC50", "setting": "IRAK4", "result": 17, "unit": "nM"}, {"measurement": "EC50", "setting": "[1]; Homo sapiens", "result": 5590, "unit": "nM"}]}, {"smiles": "CC(C)Nc1cc(-n2ncc3cc(C#N)cnc32)ncc1-c1cn(C2CCN(C)C2=O)nn1", "note": "(stereo not drawn) [Example 22, 1-(4-(isopropylamino)-5-(1-(1-methyl-2-oxopyrrolidin-3-yl)-1H-1,2,3-triazol-4-yl)pyridin-2-yl)-1H-pyrazolo[3,4-b]pyridine-5-carbonitrile]", "values": [{"measurement": "IC50", "setting": "IRAK4", "result": 4, "unit": "nM"}, {"measurement": "EC50", "setting": "[1]", "result": 490, "unit": "nM"}]}, {"smiles": "CCCc1cn(-c2cnc(-n3ncc4cc(C#N)c(N)nc43)cc2NC2COC2)nn1", "note": "[Example 281, 6-amino-1-(4-(oxetan-3-ylamino)-5-(4-propyl-1H-1,2,3-triazol-1-yl)pyridin-2-yl)-1H-pyrazolo[3,4-b]pyridine-5-carbonitrile]", "values": [{"measurement": "IC50", "setting": "IRAK4", "result": 7, "unit": "nM"}, {"measurement": "EC50", "setting": "[1]; Homo sapiens", "result": 380, "unit": "nM"}]}, {"smiles": "CC(C)Nc1cc(-n2ncc3cc(C#N)cnc32)ncc1-n1cc(C2CCC(N)CC2)nn1", "note": "(stereo not drawn) [Example 340, 1-(5-(4-((1s,4s)-4-aminocyclohexyl)-1H-1,2,3-triazol-1-yl)-4-(isopropylamino)pyridin-2-yl)-1H-pyrazolo[3,4-b]pyridine-5-carbonitrile]", "values": [{"measurement": "IC50", "setting": "IRAK4", "result": 4, "unit": "nM"}, {"measurement": "EC50", "setting": "[1]; Homo sapiens", "result": 810, "unit": "nM"}]}, {"smiles": "COC(=O)N1CCC[C@@H](c2cc(-c3cnc(-n4ncc5cc(C#N)cnc54)cc3NC(C)C)on2)C1", "note": "[Example 408, methyl (R)-3-(5-(6-(5-cyano-1H-pyrazolo[3,4-b]pyridin-1-yl)-4-(isopropylamino)pyridin-3-yl)isoxazol-3-yl)piperidine-1-carboxylate]", "values": [{"measurement": "IC50", "setting": "IRAK4", "result": 2, "unit": "nM"}, {"measurement": "EC50", "setting": "[1]; Homo sapiens", "result": 490, "unit": "nM"}]}, {"smiles": "CC(C)Nc1cc(-n2ccc3cncnc32)ncc1-c1cn(CCO)nn1", "note": "[Example 1, 2-(4-(4-(isopropylamino)-6-(7H-pyrrolo[2,3-d]pyrimidin-7-yl)pyridin-3-yl)-1H-1,2,3-triazol-1-yl)ethanol]", "values": [{"measurement": "IC50", "setting": "IRAK4", "result": 7, "unit": "nM"}, {"measurement": "EC50", "setting": "[1]; Homo sapiens", "result": 830, "unit": "nM"}]}, {"smiles": "CCCn1cc(-c2cnc(-n3ncc4cc(C#N)cnc43)cc2Nc2cnn(CC(F)F)c2)cn1", "note": "[Example 256, 1-(4-((1-(2,2-difluoroethyl)-1H-pyrazol-4-yl)amino)-5-(1-propyl-1H-pyrazol-4-yl)pyridin-2-yl)-1H-pyrazolo[3,4-b]pyridine-5-carbonitrile]", "values": [{"measurement": "IC50", "setting": "IRAK4", "result": 14, "unit": "nM"}, {"measurement": "EC50", "setting": "[1]; Homo sapiens", "result": 600, "unit": "nM"}]}, {"smiles": "CC(C)(O)CCc1cn(-c2cnc(-n3ncc4cc(C#N)cnc43)cc2NC2CCC(O)CC2)nn1", "note": "(stereo not drawn) [Example 385, 1-(5-(4-(3-hydroxy-3-methylbutyl)-1H-1,2,3-triazol-1-yl)-4-(((1 s,4s)-4-hydroxycyclohexyl)amino)pyridin-2-yl)-1H-pyrazolo[3,4-b]pyridine-5-carbonitrile]", "values": [{"measurement": "EC50", "setting": "[1]; Homo sapiens", "result": 490, "unit": "nM"}]}, {"smiles": "CC(C)Nc1cc(-n2ncc3cc(C#N)cnc32)ncc1-c1cn(CCN)nn1", "note": "[Example 172, 1-(5-(1-(2-aminoethyl)-1H-1,2,3-triazol-4-yl)-4-(isopropylamino)pyridin-2-yl)-1H-pyrazolo[3,4-b]pyridine-5-carbonitrile]", "values": [{"measurement": "EC50", "setting": "[1]; Homo sapiens", "result": 950, "unit": "nM"}]}, {"smiles": "CC(C)Nc1cc(-n2ncc3cc(C#N)cnc32)ncc1-c1cc([C@@H]2CCCCN2)on1", "note": "[Example 430, (S)-1-(4-(isopropylamino)-5-(5-(piperidin-2-yl)isoxazol-3-yl)pyridin-2-yl)-1H-pyrazolo[3,4-b]pyridine-5-carbonitrile]", "values": [{"measurement": "EC50", "setting": "[1]; Homo sapiens", "result": 470, "unit": "nM"}]}, {"smiles": "CC(F)Cc1cn(-c2cnc(-n3ncc4cc(C#N)cnc43)cc2NC(C)C)nn1", "note": "(stereo not drawn) [Example 294, 1-(5-(4-(2-fluoropropyl)-1H-1,2,3-triazol-1-yl)-4-(isopropylamino)pyridin-2-yl)-1H-pyrazolo[3,4-b]pyridine-5-carbonitrile]", "values": [{"measurement": "EC50", "setting": "[1]; Homo sapiens", "result": 1710, "unit": "nM"}]}, {"smiles": "CC(O)Cc1cn(-c2cnc(-n3ncc4cc(C#N)cnc43)cc2NC(C)C)nn1", "note": "(stereo not drawn) [Example 268, 1-(5-(4-(2-hydroxypropyl)-1H-1,2,3-triazol-1-yl)-4-(isopropylamino)pyridin-2-yl)-1H-pyrazolo[3,4-b]pyridine-5-carbonitrile]", "values": [{"measurement": "IC50", "setting": "IRAK4", "result": 38, "unit": "nM"}]}, {"smiles": "CC(C)Nc1cc(-n2ncc3cc(C#N)cnc32)ncc1-c1cn(Cc2cccnc2)cn1", "note": "[Example 235, 1-(4-(isopropylamino)-5-(1-(pyridin-3-ylmethyl)-1H-imidazol-4-yl)pyridin-2-yl)-1H-pyrazolo[3,4-b]pyridine-5-carbonitrile]", "values": [{"measurement": "IC50", "setting": "IRAK4", "result": 30, "unit": "nM"}]}, {"smiles": "COc1ccc(Cn2cc(-c3cnc(-n4ncc5cc(C#N)cnc54)cc3NC(C)C)nn2)cc1", "note": "[Example 110, 1-(4-(isopropylamino)-5-(1-(4-methoxybenzyl)-1H-1,2,3-triazol-4-yl)pyridin-2-yl)-1H-pyrazolo[3,4-b]pyridine-5-carbonitrile]", "values": [{"measurement": "IC50", "setting": "IRAK4", "result": 75, "unit": "nM"}]}, {"smiles": "CCOC(=O)Cn1cc(-c2cnc(-n3ncc4cc(C#N)cnc43)cc2NC(C)C)nn1", "note": "[Example 98, Ethyl 2-(4-(6-(5-cyano-1H-pyrazolo[3,4-b]pyridin-1-yl)-4-(isopropylamino)pyridin-3-yl)-1H-1,2,3-triazol-1-yl)acetate]", "values": [{"measurement": "IC50", "setting": "IRAK4", "result": 2, "unit": "nM"}]}, {"smiles": "CCOC(=O)N1CC[C@@H](n2cc(-c3cnc(-n4ncc5cc(C#N)cnc54)cc3NC(C)C)nn2)[C@@H](O)C1", "note": "[Example 189, (3S,4R)-ethyl 4-(4-(6-(5-cyano-1H-pyrazolo[3,4-b]pyridin-1-yl)-4-(isopropylamino)pyridin-3-yl)-1H-1,2,3-triazol-1-yl)-3-hydroxypiperidine-1-carboxylate]", "values": [{"measurement": "IC50", "setting": "IRAK4", "result": 27, "unit": "nM"}]}, {"smiles": "CC(C)Nc1cc(-n2ncc3cc(C#N)cnc32)ncc1-n1cc(C(N)=O)nn1", "note": "[Example 309, 1-(6-(5-cyano-1H-pyrazolo[3,4-b]pyridin-1-yl)-4-(isopropylamino)pyridin-3-yl)-1H-1,2,3-triazole-4-carboxamide]", "values": [{"measurement": "IC50", "setting": "IRAK4", "result": 304, "unit": "nM"}]}, {"smiles": "CC(F)Cc1cn(-c2cnc(-n3cnc4cc(C#N)cnc43)cc2NC(C)C)nn1", "note": "(single isomer, unassigned) [Example 290, 3-(5-(4-(2-fluoropropyl)-1H-1,2,3-triazol-1-yl)-4-(isopropylamino)pyridin-2-yl)-3H-imidazo[4,5-b]pyridine-6-carbonitrile]", "values": [{"measurement": "IC50", "setting": "IRAK4", "result": 25, "unit": "nM"}]}, {"smiles": "CC(C)Nc1cc(-n2ncc3cc(C#N)cnc32)ncc1-c1cn(-c2ccccc2)nn1", "note": "[Example 115, 1-(4-(isopropylamino)-5-(1-phenyl-1H-1,2,3-triazol-4-yl)pyridin-2-yl)-1H-pyrazolo[3,4-b]pyridine-5-carbonitrile]", "values": [{"measurement": "IC50", "setting": "IRAK4", "result": 33, "unit": "nM"}]}, {"smiles": "CCn1cc(-c2cnc(-n3ncc4cc(C#N)cnc43)cc2NC(C)C)cn1", "note": "[Example 253, 1-(5-(1-ethyl-1H-pyrazol-4-yl)-4-(isopropylamino)pyridin-2-yl)-1H-pyrazolo[3,4-b]pyridine-5-carbonitrile]", "values": [{"measurement": "IC50", "setting": "IRAK4", "result": 65, "unit": "nM"}]}, {"smiles": "CC(C)Nc1cc(-n2ncc3cc(C#N)cnc32)ncc1-c1cn(CC(O)Cc2ccccc2)nn1", "note": "(single isomer, unassigned) [Example 76, 1-(5-(1-(2-hydroxy-3-phenylpropyl)-1H-1,2,3-triazol-4-yl)-4-(isopropylamino)pyridin-2-yl)-1H-pyrazolo [3,4-b]pyridine-5-carbonitrile]", "values": [{"measurement": "IC50", "setting": "IRAK4", "result": 7, "unit": "nM"}]}, {"smiles": "CC(C)Nc1cc(-n2ncc3cc(C#N)cnc32)ncc1-n1cc(CCO)cn1", "note": "[Example 242, 1-(5-(4-(2-hydroxyethyl)-1H-pyrazol-1-yl)-4-(isopropylamino)pyridin-2-yl)-1H-pyrazolo[3,4-b]pyridine-5-carbonitrile]", "values": [{"measurement": "IC50", "setting": "IRAK4", "result": 47, "unit": "nM"}]}, {"smiles": "CC(C)Nc1cc(-n2ncc3cc(C#N)cnc32)ncc1-n1cc(-c2cncn2C)nn1", "note": "[Example 317, 1-(4-(isopropylamino)-5-(4-(1-methyl-1H-imidazol-5-yl)-1H-1,2,3-triazol-1-yl)pyridin-2-yl)-1H-pyrazolo[3,4-b]pyridine-5-carbonitrile]", "values": [{"measurement": "IC50", "setting": "IRAK4", "result": 60, "unit": "nM"}]}, {"smiles": "CC(C)Nc1cc(-n2ncc3cc(C#N)cnc32)ncc1-n1cc(-c2cccnc2)nn1", "note": "[Example 299, 1-(4-(isopropylamino)-5-(4-(pyridin-3-yl)-1H-1,2,3-triazol-1-yl)pyridin-2-yl)-1H-pyrazolo[3,4-b]pyridine-5-carbonitrile]", "values": [{"measurement": "IC50", "setting": "IRAK4", "result": 44, "unit": "nM"}]}, {"smiles": "CC(C)Nc1cc(-n2ncc3cc(C#N)cnc32)ncc1-c1cn(-c2cccnc2C#N)nn1", "note": "[Example 111, 1-(5-(1-(2-cyanopyridin-3-yl)-1H-1,2,3-triazol-4-yl)-4-(isopropylamino)pyridin-2-yl)-1H-pyrazolo[3,4-b]pyridine-5-carbonitrile]", "values": [{"measurement": "IC50", "setting": "IRAK4", "result": 13, "unit": "nM"}]}, {"smiles": "CC(C)Nc1cc(-n2ncc3cc(C#N)cnc32)ncc1-c1cn(Cc2ccccn2)cn1", "note": "[Example 239, 1-(4-(isopropylamino)-5-(1-(pyridin-2-ylmethyl)-1H-imidazol-4-yl)pyridin-2-yl)-1H-pyrazolo[3,4-b]pyridine-5-carbonitrile]", "values": [{"measurement": "IC50", "setting": "IRAK4", "result": 34, "unit": "nM"}]}, {"smiles": "C[C@@H](CO)Nc1cc(-n2ncc3cc(C#N)cnc32)ncc1-n1cc(CCC(C)(C)O)nn1", "note": "[Example 376, (S)-1-(5-(4-(3-hydroxy-3-methylbutyl)-1H-1,2,3-triazol-1-yl)-4-((1-hydroxypropan-2-yl)amino)pyridin-2-yl)-1H-pyrazolo[3,4-b]pyridine-5-carbonitrile]", "values": [{"measurement": "EC50", "setting": "[1]; Homo sapiens", "result": 380, "unit": "nM"}]}, {"smiles": "CC(C)(O)CCc1cn(-c2cnc(-n3ncc4cc(C#N)cnc43)cc2N[C@H]2CC[C@H](O)CC2)nn1", "note": "[Example 385, 1-(5-(4-(3-hydroxy-3-methylbutyl)-1H-1,2,3-triazol-1-yl)-4-(((1 s,4s)-4-hydroxycyclohexyl)amino)pyridin-2-yl)-1H-pyrazolo[3,4-b]pyridine-5-carbonitrile]", "values": [{"measurement": "IC50", "setting": "IRAK4", "result": 3, "unit": "nM"}]}, {"smiles": "CC(C)Nc1cc(-n2ncc3cc(C#N)cnc32)ncc1-c1cn(CC(N)=O)cn1", "note": "[Example 237, 2-(4-(6-(5-cyano-1H-pyrazolo[3,4-b]pyridin-1-yl)-4-(isopropylamino)pyridin-3-yl)-1H-imidazol-1-yl) acetamide]", "values": [{"measurement": "IC50", "setting": "IRAK4", "result": 37, "unit": "nM"}]}]}
